In PMC6456241 (Preventive Nutrition and Food Science, 2018):

What was measured:
[1] = target: mushroom tyrosinase (EC 1.14.18.1) (Agaricus bisporus, UniProt C7FF04); experiment: Assay of tyrosinase; type: biochemical
[2] = target: α-Glucosidase (EC 3.2.1.20); experiment: Assay of α-glucosidase; type: biochemical; conditions: read-out: Inhibition (IC50) α-Glucosidase; isolated compounds; pNPG substrate, pH 6.8, 37°C; mean±SD of triplicate

mushroom tyrosinase (EC 1.14.18.1), sequence (C7FF04 1-392 limits assumed): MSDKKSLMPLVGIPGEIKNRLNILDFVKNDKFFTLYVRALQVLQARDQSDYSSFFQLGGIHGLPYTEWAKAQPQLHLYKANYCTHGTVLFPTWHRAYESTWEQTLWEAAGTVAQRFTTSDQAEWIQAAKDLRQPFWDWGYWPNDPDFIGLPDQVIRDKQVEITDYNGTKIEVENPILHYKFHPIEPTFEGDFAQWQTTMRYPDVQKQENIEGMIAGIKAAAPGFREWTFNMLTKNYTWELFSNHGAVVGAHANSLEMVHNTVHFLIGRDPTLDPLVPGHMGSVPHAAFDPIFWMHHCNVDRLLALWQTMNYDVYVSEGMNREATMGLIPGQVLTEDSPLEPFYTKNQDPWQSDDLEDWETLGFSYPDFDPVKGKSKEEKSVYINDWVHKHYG

| IC50 [1] | IC50 [2] | SMILES |
| --- | --- | --- |
| 17.2 ± 0.37 µM | 168 ± 2.44 µM | Oc1cc(O)cc(-c2cc3ccc(O)cc3o2)c1 [MCM, moracin M] |
| 10.16 ± 0.03 µM | 59.4 ± 2 µM | CC(C)=CCc1cc2cc(-c3cc(O)cc(O)c3)oc2cc1O [MCN, moracin N] |
| 5.61 ± 0.2 µM | 6 ± 0.46 µM | CC(C)=CCc1c(O)ccc(C(=O)[C@H]2[C@@H](c3c(O)cc(-c4cc5ccc(O)cc5o4)cc3O)C=C(C)C[C@@H]2c2ccc(O)cc2O)c1O [CMC, chalcomoracin] |
| 37.9 ± 0.42 µM | 88.8 ± 1.32 µM | CC(C)=CCc1c(O)cc(-c2cc3ccc(O)cc3o2)cc1O [MCC, moracin C] |

| SMILES | IC50 [1] | IC50 [2] |
| --- | --- | --- |
| Oc1cc(O)cc(/C=C/c2ccc(O)cc2O)c1 [ORT, oxyresveratrol] | 0.57 ± 0.04 µM | 273 ± 13.2 µM |
